These results are taken from patent US20110200993A1, “NEW TREATMENT OF AUTOIMMUNE CONDITIONS” (priority 2007, published 2011).

The subject of the assay is system A transporters (including Slc38A1). Description: Effect of blocking system A transport on arthritis in mice. The class given is in vivo. From the text:
FIG. 3 is a graph showing the effect of blocking the system A transporters (including Slc38A1) on (A) mean arthritis score and (B) anti collagen antibody production. P=<0.05, n=20.
This confirms that disease susceptibility can be changed both by increased and decreased transporter activity.

On to `CNC(C)(C)C(=O)O` [MeAIB], for which the arthritis susceptibility entry is “increases arthritis susceptibility”.
